Test results published in ChEMBL document CHEMBL1201862, “PubChem BioAssay data set” (2004).
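Five compound concentrations were applied to cells in 96-well plates for 48 hours; endpoints were derived by simple linear interpolation of the resulting dose-response curve. At the GI50, growth is halved.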 The source made the active and inactive calls. No stated cut-off is given here; in the data, active = GI50 up to about 1.1 µM and inactive = higher.

Key:
Assay in all cases: NCI anticancer screen, dose series, 48 h
Malme-3M = system: Malme-3M
SW-620 = system: SW-620
HL-60 = system: HL-60
NCI-H23 = system: NCI-H23
PC-3 = system: PC-3
M14 = system: M14
UACC-257 = system: UACC-257
BT-549 = system: BT-549
SK-OV-3 = system: SK-OV-3
MDA-MB-231 = system: MDA-MB-231
K562 = system: K562
HT-29 = system: HT-29
NCI-H460 = system: NCI-H460
786-0 = system: 786-0
NCI/ADR-RES = system: NCI/ADR-RES
T47D = system: T47D
ACHN = system: ACHN
OVCAR-4 = system: OVCAR-4
SNB-19 = system: SNB-19
SK-MEL-2 = system: SK-MEL-2
RXF 393 = system: RXF 393
EKVX = system: EKVX
HCT-15 = system: HCT-15
SF-268 = system: SF-268
A549 = system: A549
SR = system: SR
SK-MEL-28 = system: SK-MEL-28
HCT-116 = system: HCT-116
A498 = system: A498
CCRF-CEM = system: CCRF-CEM
U-251 = system: U-251
LOX IMVI = system: LOX IMVI
UACC-62 = system: UACC-62
HCC 2998 = system: HCC 2998
DU-145 = system: DU-145
MDA-MB-435 = system: MDA-MB-435
Hs-578T = system: Hs-578T
SF-295 = system: SF-295
HOP-92 = system: HOP-92
RPMI-8226 = system: RPMI-8226
SK-MEL-5 = system: SK-MEL-5
SNB-75 = system: SNB-75
OVCAR-8 = system: OVCAR-8
HOP-62 = system: HOP-62
MDA-N = system: MDA-N
SN12C = system: SN12C
OVCAR-5 = system: OVCAR-5
CAKI-1 = system: CAKI-1
TK-10 = system: TK-10
OVCAR-3 = system: OVCAR-3
NCI-H522 = system: NCI-H522
SF-539 = system: SF-539
KM12 = system: KM12
MOLT-4 = system: MOLT-4
MCF7 = system: MCF7
UO-31 = system: UO-31
IGROV-1 = system: IGROV-1
NCI-H226 = system: NCI-H226
COLO 205 = system: COLO 205

Measured: GI50

O=[N+]([O-])c1ccc(C(=S)Nc2ccccc2)o1
active: K562 0.938 µM
2.07 µM: HCT-15
inactive: Malme-3M 2.91 µM | SW-620 1.27 µM | HL-60 2.1 µM | NCI-H23 3.35 µM | PC-3 1.79 µM | M14 4.94 µM | UACC-257 4.3 µM | BT-549 4.76 µM | SK-OV-3 11.4 µM | MDA-MB-231 2.74 µM | HT-29 1.85 µM | NCI-H460 3.19 µM | 786-0 2.07 µM | NCI/ADR-RES 2.16 µM | T47D 4.33 µM | ACHN 2.36 µM | OVCAR-4 2.43 µM | SNB-19 4.62 µM | SK-MEL-2 2.48 µM | RXF 393 4.14 µM | EKVX 5.11 µM | SF-268 3.36 µM | A549 6.55 µM | SR 1.79 µM | SK-MEL-28 4.27 µM | HCT-116 1.81 µM | A498 18.1 µM | CCRF-CEM 2.45 µM | U-251 1.48 µM | LOX IMVI 2.29 µM | UACC-62 3.46 µM | HCC 2998 1.69 µM | DU-145 6.41 µM | MDA-MB-435 2.58 µM | Hs-578T 3.71 µM | SF-295 5.56 µM | HOP-92 15.3 µM | RPMI-8226 1.53 µM | SK-MEL-5 10.9 µM | SNB-75 7.67 µM | OVCAR-8 2.51 µM | HOP-62 2.65 µM | MDA-N 2.96 µM | SN12C 2.42 µM | OVCAR-5 4.54 µM | CAKI-1 4.11 µM | TK-10 4.74 µM | OVCAR-3 2.19 µM | NCI-H522 1.34 µM | SF-539 1.58 µM | KM12 2.38 µM | MOLT-4 1.26 µM | MCF7 2.05 µM | UO-31 2.32 µM | IGROV-1 6.1 µM

COc1ccc(N2C(N)=C(C#N)C(C#N)(C#N)C2c2cccc([N+](=O)[O-])c2)cc1 (stereo not drawn)
15.5 µM: HCT-15
inactive: Malme-3M 6.73 µM | SW-620 11.2 µM | HL-60 3.03 µM | NCI-H23 15.5 µM | PC-3 17.1 µM | M14 17.3 µM | UACC-257 13.7 µM | BT-549 17.9 µM | SK-OV-3 20.2 µM | MDA-MB-231 14.9 µM | K562 2.92 µM | HT-29 13.9 µM | 786-0 14.5 µM | NCI/ADR-RES 21.1 µM | T47D 12.6 µM | ACHN 14.2 µM | NCI-H226 19.8 µM | OVCAR-4 17.7 µM | SNB-19 17.9 µM | SK-MEL-2 18.1 µM | RXF 393 9.23 µM | EKVX 20.7 µM | SF-268 20.6 µM | A549 18.3 µM | SR 8.47 µM | SK-MEL-28 8.57 µM | HCT-116 9.91 µM | A498 16.1 µM | CCRF-CEM 3.05 µM | U-251 17.4 µM | LOX IMVI 13.5 µM | UACC-62 15.9 µM | HCC 2998 16.9 µM | DU-145 17.8 µM | MDA-MB-435 16.9 µM | Hs-578T 24 µM | SF-295 19.1 µM | HOP-92 12.9 µM | RPMI-8226 11.6 µM | SK-MEL-5 13.4 µM | COLO 205 10.7 µM | SNB-75 18.8 µM | OVCAR-8 17.9 µM | HOP-62 16.3 µM | MDA-N 17.3 µM | SN12C 16.1 µM | OVCAR-5 17.5 µM | CAKI-1 2.61 µM | TK-10 16.6 µM | OVCAR-3 15.4 µM | NCI-H522 7.14 µM | SF-539 14.7 µM | KM12 18.9 µM | MOLT-4 3.78 µM | MCF7 19.9 µM | UO-31 17.3 µM | IGROV-1 14.7 µM

COc1ccc(C(=O)C#Cc2cnc(OC)nc2OC)cc1
active: SW-620 0.571 µM | K562 0.367 µM | SR 0.0491 µM | CCRF-CEM 0.13 µM | LOX IMVI 0.147 µM | UACC-62 1.11 µM | MOLT-4 0.0531 µM | MCF7 0.778 µM
1.02 µM: HCT-15
inactive: Malme-3M 1.67 µM | HL-60 1.63 µM | NCI-H23 1.48 µM | PC-3 1.26 µM | M14 1.36 µM | UACC-257 2.09 µM | BT-549 1.6 µM | SK-OV-3 14.1 µM | MDA-MB-231 32400 µM | HT-29 1.22 µM | NCI-H460 2.65 µM | 786-0 1.94 µM | NCI/ADR-RES 1.82 µM | T47D 1.89 µM | ACHN 1.5 µM | NCI-H226 1.47 µM | OVCAR-4 6.5 µM | SNB-19 12.2 µM | SK-MEL-2 1.42 µM | RXF 393 1.87 µM | EKVX 1.83 µM | SF-268 2.74 µM | A549 4.17 µM | SK-MEL-28 1.61 µM | HCT-116 1.32 µM | A498 18.7 µM | U-251 1.33 µM | HCC 2998 1.84 µM | DU-145 2.31 µM | MDA-MB-435 2.57 µM | Hs-578T 4.07 µM | SF-295 12.4 µM | HOP-92 1.76 µM | RPMI-8226 1.93 µM | SK-MEL-5 1.34 µM | COLO 205 1.57 µM | SNB-75 2.22 µM | OVCAR-8 1.56 µM | HOP-62 17 µM | MDA-N 1.58 µM | SN12C 1.19 µM | OVCAR-5 1.64 µM | CAKI-1 1.19 µM | TK-10 1.67 µM | OVCAR-3 1.68 µM | NCI-H522 1.39 µM | KM12 2.68 µM | UO-31 1.29 µM | IGROV-1 1.45 µM
